Experimental findings from patent US20260258039A1, “AROMATIC COMPOUND, METHOD FOR PREPARING SAME, AND USE THEREOF IN PREPARATION OF ESTROGEN RECEPTOR DEGRADER” (Hinova Pharmaceuticals Inc., priority 2022, published 2026) are described below.

Structures are written as SMILES. Like-named read-outs stand apart in the source and are kept apart here. Bounds are passed on as bounds.

One assay addresses T1, ER (Homo sapiens, UniProt P03372).
T1 construct: T47D breast cancer cells were subcultured in cell culture medium; endogenous in cells; host or cells: T47D breast cancer cells
T1 sequence (P03372 1-595): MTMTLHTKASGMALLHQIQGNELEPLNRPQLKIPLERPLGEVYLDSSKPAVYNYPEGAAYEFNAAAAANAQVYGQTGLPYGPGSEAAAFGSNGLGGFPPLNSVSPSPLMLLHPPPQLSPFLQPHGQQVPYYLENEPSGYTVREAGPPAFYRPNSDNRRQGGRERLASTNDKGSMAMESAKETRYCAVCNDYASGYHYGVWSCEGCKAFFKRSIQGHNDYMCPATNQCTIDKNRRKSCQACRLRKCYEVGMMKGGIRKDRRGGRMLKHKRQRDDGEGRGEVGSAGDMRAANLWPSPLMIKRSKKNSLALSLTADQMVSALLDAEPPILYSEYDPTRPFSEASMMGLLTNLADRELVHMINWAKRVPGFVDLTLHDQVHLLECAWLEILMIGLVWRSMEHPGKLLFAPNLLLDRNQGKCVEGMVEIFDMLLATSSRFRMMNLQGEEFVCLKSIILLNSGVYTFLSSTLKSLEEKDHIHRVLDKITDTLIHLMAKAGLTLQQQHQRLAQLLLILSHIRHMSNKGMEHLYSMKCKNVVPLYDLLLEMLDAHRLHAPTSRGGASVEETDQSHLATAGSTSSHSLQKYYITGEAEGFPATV
Nature of the assay: Degradation activities on ER (ELISA) in T47D breast cancer cells. The settings on record: T47D cells, 24 h, ELISA; for DC50: concentration required to degrade 50% of the target protein; for Dmax: maximum percentage of target protein degraded, read-out: Dmax. The assay is classed as cell-based. In a few lines: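 Cellular ER degradation ELISA: compound dosed 24 h on T47D cells (2.5×10^4/well, pre-grown 3 days) at six final levels from 100 nM downward. Remaining ER was detected by HRP-TMB absorbance at 450 nm. Dose-response fitting gave DC50 and Dmax, the maximal percentage degraded.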
(An ELISA detects its analyte on a solid surface through an enzyme-linked reagent.)

Assay [1] has as its system MCF-7 breast cancer cells. Put plainly: Inhibition of proliferation of MCF-7 breast cancer cells (agarose culture, CellTiter-Glo 3D). The assay is classed as cell-based. The settings on record: MCF-7 cells, 15 days of cultivation, read-out: IC50. As for the experimental part: After 1.6% agarose and 0.7% agarose were sterilized at high temperature, they were cooled to around 50° C., and placed in a 42° C. water bath for later use. MCF-7 breast cancer cells were subcultured in complete cell culture medium, and cells in good growth condition were digested and counted for future use. 50 µL of 1.6% agarose mixed with 2× culture medium at a ratio of 1:1 was spread into the bottom of 96-well plate, and allowed to cool and solidify. 0.7% agarose was mixed with diluted cell suspension in a ratio of 1:1, and then 50 µL of the mixture of gel and cells was added to each well, with 2000 cells for each well; the mixture was allowed to cool and solidify at room temperature. 50 μL of culture medium was added to the plate containing cells, and the plate was placed in a 37° C., 5% CO2 incubator and cultured for 24 h. The drug was prepared into 10 mM stock solution with dimethyl sulfoxide (DMSO). The stock solution was diluted in a ratio of 1:3, to obtain 9 concentration gradients. Then, each concentration of compound solution was further diluted with culture medium in 1:250 (to ensure a DMSO concentration of 0.1% in the culture system). Two replicate wells was set for each concentration. 50 μL of the diluted compound solution was added to the cell culture wells (with final concentrations of 10 μM, 3.3 μM, 1.1 μM, 0.37 μM . . . ). The plate was gently shaken for mixing. Additionally, 3 negative control wells only containing cells and 3 blank control wells only containing culture medium were set up (each of the 6 wells was added with 50 μL of DMSO diluted with culture medium in a ration of 1:250). After 15 days of cultivation, the cell plates and CellTiter-Glo 3D Cell Viability were taken out and equilibrated to room temperature in advance. 80 μL of culture medium were aspirated and discarded from the cell plate, and 120 µL of CellTiter-Glo 3D Cell Viability solution was added to each well. The plates were centrifuged at 1200 rpm/min for 5 min, and then placed in the dark and kept for 25 min. The […] were measured using a multi-function microplate reader. The data were analyzed using the Dose-response-inhibition equation in GraphPad Prism8 software, and the IC50 values were obtained, as shown in Table 3.
On the technique in general: ATP-based viability assays read luminescence as a measure of living cells.

What is called DC50 is the midpoint of the concentration-degradation curve. As a reminder, the IC50 is the concentration that inhibits the measured activity by half. The compound `O=C1CCC(N2Cc3cc(N4CC5(CCN(CC6CCN(c7c(F)cc([C@@H]8c9ccc(O)cc9OC[C@@H]8c8ccccc8F)cc7F)CC6)CC5)C4)ccc3C2=O)C(=O)N1` (stereo partly drawn) [Example 50, 3-(5-(7-((1-(4-((3S,4R)-3-(2-fluorophenyl)-7-hydroxychroman-4-yl)-2,6-difluorophenyl)piperidin-4-yl)methyl)-2,7-diazaspiro[3.5]nonane-2-yl)-1-oxoisoinodolin-2-yl)piperidin-2,6-one] showed a DC50 at ER of less than 10 nM. For the same compound, the IC50 in assay [1] was less than 10 nM.

The Dmax is the greatest extent of degradation seen. For `O=C1CC[C@@H](N2Cc3cc(N4CC5(CCN(CC6CCN(c7c(F)cc([C@@H]8c9ccc(O)cc9OC[C@@H]8c8c(F)cccc8F)cc7F)CC6)CC5)C4)ccc3C2=O)C(=O)N1` [Example 44], on ER, the DC50 was greater than 100 nM and the Dmax was less than 50%. For the same compound, in assay [1] (Homo sapiens, MCF7, 360 h), the IC50 is greater than 50 nM.

Consider `O=C1CCC(N2Cc3cc(N4CC5(CCN(CC6CCN(c7c(F)cc(C8=C(c9c(F)cccc9F)COc9cc(O)ccc98)cc7F)CC6)CC5)C4)ccc3C2=O)C(=O)N1` (stereo not drawn) [Example 42], for which, at ER, the DC50 was less than 10 nM and the maximal degradation (Dmax) lay in the range of 50 to 75%. Besides, in assay [1] (Homo sapiens, MCF7, 360 h), the IC50 was in the range of 11 to 50 nM.

In the case of `O=C1CC[C@@H](N2Cc3cc(N4CC5(CCN(CC6CCN(c7ccc([C@@H]8c9ccc(O)cc9OC[C@@H]8c8c(F)cccc8F)cc7F)CC6)CC5)C4)ccc3C2=O)C(=O)N1` [Example 74, (R)-3-(5-(7-((1-(4-((3S,4R)-3-(2,6-difluorophenyl)-7-hydroxychroman-4-yl)-2-fluorophenyl)piperidin-4-yl)methyl)-2,7-diazaspiro[3.5]nonane-2-yl)-1-oxoisoinodolin-2-yl)piperidin-2,6-dione], at ER, the DC50 was greater than 100 nM and the Dmax was less than 50%. Moreover, the IC50 in assay [1] (Homo sapiens, MCF7, 360 h) was greater than 50 nM.

`CC(C)C[C@H]1COc2cc(O)ccc2[C@H]1c1cc(F)c(N2CCC(CN3CCC4(CC3)CN(c3ccc5c(c3)CN(C3CCC(=O)NC3=O)C5=O)C4)CC2)c(F)c1` (stereo partly drawn) [Example 17, 3-(5-(7-((1-(2,6-difluoro-4-(cis-7-hydroxyl-3-isobutylchroman-4-yl)phenyl)piperidin-4-yl)methyl)-2,7-diazaspiro[3.5]nonane-2-yl)-1-oxoisoinodolin-2-yl)piperidin-2,6-dione]: at ER, the DC50 was less than 10 nM and the Dmax is 50 to 75%. Besides, the IC50 in assay [1] (Homo sapiens, MCF7, 360 h) fell in the range of 11 to 50 nM.

As to `O=C1CCC(N2Cc3cc(N4CC5(CCN(CC6CCN(c7c(F)cc([C@@H]8c9ccc(O)cc9OC[C@@H]8c8cccc(F)c8F)cc7F)CC6)CC5)C4)ccc3C2=O)C(=O)N1` (stereo partly drawn) [Example 49, 3-(5-(7-((1-(4-((3S, 4R)-3-(2,3-difluorophenyl)-7-hydroxychroman-4-yl)-2,6-difluorophenyl)piperidin-4-yl)methyl)-2,7-diazaspiro[3.5]nonane-2-yl)-1-oxoisoinodolin-2-yl)piperidin-2,6-one], the DC50 at ER is less than 10 nM. The IC50 in assay [1] (Homo sapiens, MCF7, 360 h) is less than 10 nM.

Consider `O=C1CCC(N2Cc3cc(N4CC5(CCN(CC6CCN(c7ccc([C@@H]8c9ccc(O)cc9OC[C@@H]8c8ccc(F)cc8)cc7)CC6)CC5)C4)ccc3C2=O)C(=O)N1` (stereo partly drawn) [Example 9, 3-(5-(7-((1-(4-(cis-3-(4-fluorophenyl)-7-hydroxyltryptophane-4-yl)phenyl)piperidin-4-yl)methyl)-2,7-diazaspiro[3.5]nonane-2-yl)-1-oxoisoinodolin-2-yl)piperidin-2,6-dione], for which, on ER, the DC50 is less than 10 nM and the Dmax fell in the range of 50 to 75%. Besides, in assay [1] (Homo sapiens, MCF7, 360 h), the IC50 is 11 to 50 nM.

Consider `O=C1CC[C@H](N2Cc3cc(N4CC5(CCN(CC6CCN(c7ccc([C@@H]8c9ccc(O)cc9OC[C@@H]8c8c(F)cccc8F)cc7F)CC6)CC5)C4)ccc3C2=O)C(=O)N1` [Example 75, (S)-3-(5-(7-((1-(4-((3S,4R)-3-(2,6-difluorophenyl)-7-hydroxychroman-4-yl)-2-fluorophenyl)piperidin-4-yl)methyl)-2,7-diazaspiro[3.5]nonane-2-yl)-1-oxoisoinodolin-2-yl)piperidin-2,6-dione], for which, on ER, the DC50 was less than 10 nM and the greatest degradation seen (Dmax) is greater than 75%. Further, in assay [1] (Homo sapiens, MCF7, 360 h), the IC50 was less than 10 nM.

The compound `O=C1CCC(N2Cc3cc(N4CCC(N5CC6(CCN(c7ccc([C@@H]8c9ccc(O)cc9CC[C@@H]8c8ccccc8F)cc7)CC6)C5)CC4)ccc3C2=O)C(=O)N1` (stereo partly drawn) [Example 22, 3-(5-(4-(7-(4-((1R,2S)-2-(2-fluorophenyl)-6-hydroxyl-1,2,3,4-tetrahydronaphthalen-1-yl)phenyl)-2,7-diazaspiro[3.5]nonane-2-yl)piperidin-1-yl)-1-oxoisoinodolin-2-yl)piperidin-2,6-dione] yielded a DC50 on ER of less than 10 nM. Further, the IC50 in assay [1] (Homo sapiens, MCF7, 360 h) was less than 10 nM.

In the case of `O=C1CCC(N2Cc3cc(N4CCC(N5CC6(CCN(c7ccc([C@@H]8c9ccc(O)cc9OC[C@@H]8c8ccccc8F)cc7)CC6)C5)CC4)ccc3C2=O)C(=O)N1` (stereo partly drawn) [Example 14, 3-(5-(4-(7-(4-((3S, 4R)-3-(2-fluorophenyl)-7-hydroxychroman-4-yl)phenyl)-2,7-diazaspiro[3.5]nonane-2-yl)piperidin-1-yl)-1-oxoisoinodolin-2-yl)pyridine-2,6-dione], at ER, the 50% degradation concentration (DC50) was less than 10 nM and the Dmax was greater than 75%. The IC50 in assay [1] (Homo sapiens, MCF7, 360 h) is less than 10 nM.

With `O=C1CCC(N2Cc3cc(N4CC5(CCN(CC6CCN(c7ccc([C@@H]8c9ccc(O)cc9OC[C@@H]8c8cccc(F)c8F)cc7F)CC6)CC5)C4)ccc3C2=O)C(=O)N1` (stereo partly drawn) [Example 16, 3-(5-(7-((1-(4-((3S, 4R)-3-(2,3-difluorophenyl)-7-hydroxychroman-4-yl)-2-fluorophenyl)piperidin-4-yl)methyl)-2,7-diazaspiro[3.5]nonane-2-yl)-1-oxoisoinodolin-2-yl)piperidin-2,6-dione], at ER, the DC50 was less than 10 nM and the greatest degradation seen (Dmax) was in the range of 50 to 75%. Moreover, the 50% inhibitory concentration (IC50) in assay [1] (Homo sapiens, MCF7, 360 h) was less than 10 nM.
